Measured values published in patent US9927440B2, “Protein engineering” (priority 2009, dated 2018).

Legend:
[1] = biological target: SN (Staphylococcus aureus, UniProt P00644); conditions: Ca2+ and pdTp synergistic; read-out: affinity for SN in the presence of the other ligand; cited from earlier work
[2] = biological target: T1, Staphylococcal nuclease (SN) (Staphylococcus aureus, UniProt P00644, L118C/Q162N); assay type: binding; conditions: 50 μM pdTp; 35.3 °C
T1 construct: made in house; host or cells: cell-free TnT, E. coli BL21 Star (DE3) extract
Method: (§1) The rate of labeling of internal cysteine residues was measured by reacting 30-50 μL of ˜0.1 μM protein sample (i.e., ˜3-5 picomoles of protein) with excess IAM-biotin (1 mM unless otherwise stated) at constant temperature (25 mM MOPS, 100 mM KCl and pH 7.6). 5 μL aliquots were removed at fixed time intervals and quenched by addition of 2 μL 2M β-mercaptoethanol (Sigma; M6250). Following addition of 5 μL LDS-buffer (Invitrogen; NP0007) and heating for 2 min at 85° C., (un)labeled protein species were resolved by SDS-PAGE (Novex 4-12% Bis-Tris Gels; Invitrogen; NP0321). […] For the experiment shown in FIG. 8A, ecRBP variant L62C was modified with 1 mM IAM-biotin at 47.1° C., pH 7.6. […] Streptavidin was used to alter the electrophoretic mobility of the labeled protein (Streptavidin bands indicated by a, b, and c). […] Error bars represent the estimated uncertainty of the integrated band intensities (˜2%). For the experiment shown in FIG. 8B, SN variant L36C was labeled with IAM-biotin at 35.3° C., pH 7.6. […] At 29.3° C., 26.3° C. and 23.3° C., kint and klabel were manipulated by increasing the concentration of IAM-biotin from 1 mM to 3.16 mM.
(§2) The modulation of protein stability by binding of metals, ligands, activators, inhibitors, substrates, nucleic acid or other proteins can be used to measure binding affinities within a GUWO. For a protein with a single binding site, the free energy of ligand binding was described by
(§3) [formula] where P was the binding polynomial, [L] the total ligand concentration, and KD the apparent dissociation constant of the ligand. For proteins with multiple ligand-binding sites, P was expanded as described in Equations 21-36 below.
(§4) By thermodynamic linkage, any change in ΔGU caused predominantly by ligand binding (Scheme 1) is ΔGbind=ΔΔ^LGU=Δ^LGU−Δ^apoGU [20] where Δ^LGU and Δ^apoGU were the stability of the protein in the presence of absence of ligand respectively. Equation 20 was used to obtain apparent KD values from either the ligand dependence of ΔΔGU (by curve fitting), or from a single measurement of ΔΔGU.

[3] = biological target: T2, Staphylococcal nuclease (SN) (Staphylococcus aureus, UniProt P00644); assay type: binding; conditions: SN/L36C; 35.3 °C; from single ΔΔGU measurement; read-out: apparent KD (binary complex)
T2 construct: made in house; host or cells: cell-free TnT, E. coli BL21 Star (DE3) extract
Method: as §1, §2, §3, §4

[4] = literature; cited from earlier work

In the case of Cc1cn([C@H]2C[C@H](OP(=O)(O)O)[C@@H](COP(=O)(O)O)O2)c(=O)[nH]c1=O [pdTp], the Kd [1] is given as ~2 µM, the “increase in stability (ΔΔGU) of SN/L36C” value [2] is given as 0.7 ± 0.2 kcal/mol and the Kd [3] is given as 23 ± 4 µM.

B1: wild-type ecRBP: wild-type E. coli ribose-binding protein (protein, listed as Escherichia coli)
chain: MKDTIALVVSTLNNPFFVSLKDGAQKEADKLGYNLVVLDSQNNPAKELANVQDLTVRGTKILLINPTDSDAVGNAVKMANQANIPVITLDRQATKGEVVSHIASDNVLGGKIAGDYIAKKAGEGAKVIELQGIAGTSAARERGEGFQQAVAAHKFNVLASQPADFDRIKGLNVMQNLLTAHPDVQAVFAQNDEMALGALRALQTAGKSDVMVVGFDGTPDGEKAVNDGKLAATIAQLPDQIGAKGVETADKVLKGEKVQAKYPVDLKLVVKQNGGSHHHHHH
In the case of B1, the Tm of wild-type [4] is given as 62.6 °C.
